Test [1] relates to Mycosphaerella graminicola; anamorph: Septoria tritici. The experiment in a line: Fungicidal activity: leaf blotch of wheat (SEPTTR), wheat seedlings. Format: in vivo. The settings on record: Zymoseptoria tritici, 100 ppm, wheat. As to the method: Evaluation of Fungicidal Activity: Leaf Blotch of Wheat (Mycosphaerella Graminicola; Anamorph: Septoria tritici; Bayer Code […]) Technical grades of materials were dissolved in acetone, which were then mixed with nine volumes of water containing 110 ppm Triton X-100. The fungicide solutions were applied onto wheat seedlings using an automated booth sprayer to run-off. All sprayed plants were allowed to air dry prior to further handling. Wheat plants (variety Yuma) were grown from seed in a greenhouse in 50% mineral soil/50% soil-less Metro mix until the first leaf was fully emerged, with 7-10 seedlings per pot. These plants were inoculated with an aqueous spore suspension of Septoria tritici either prior to or after fungicide treatments. After inoculation the plants were kept in 100% relative humidity (one day in a dark dew chamber followed by two to three days in a lighted dew chamber at 20° C.) to permit spores to germinate and infect the leaf. The plants were then transferred to a greenhouse set at 20° C. for disease to develop. When disease symptoms were fully expressed on the 1st leaves of untreated plants, infection levels were assessed on a scale of 0 to 100 percent disease severity. Percent disease control was calculated using the ratio of disease severity on treated plants relative to untreated plants.

For test [2], the system named is Puccinia triticina; synonym: Puccinia recondita f. sp. tritici. The test can be described thus: Fungicidal activity: wheat brown rust (PUCCRT), wheat seedlings. Format: in vivo. The settings on record: 100 ppm, wheat. As to the method:
Technical grades of materials were dissolved in acetone, which were then mixed with nine volumes of water containing 110 ppm Triton X-100. The fungicide solutions were applied onto wheat seedlings using an automated booth sprayer to run-off. All sprayed plants were allowed to air dry prior to further handling. Wheat plants (variety Yuma) were grown from seed in a greenhouse in 50% mineral soil/50% soil-less Metro mix until the first leaf was fully emerged, with 7-10 seedlings per pot. These plants were inoculated with an aqueous spore suspension of Septoria tritici either prior to or after fungicide treatments. After inoculation the plants were kept in 100% relative humidity (one day in a dark dew chamber followed by two to three days in a lighted dew chamber at 20° C.) to permit spores to germinate and infect the leaf. The plants were then transferred to a greenhouse set at 20° C. for disease to develop. When disease symptoms were fully expressed on the 1st leaves of untreated plants, infection levels were assessed on a scale of 0 to 100 percent disease severity. Percent disease control was calculated using the ratio of disease severity on treated plants relative to untreated plants. Evaluation of Fungicidal Activity: Wheat Brown Rust (Puccinia […]; Synonym: Puccinia recondita f. Sp. Tritici; Bayer Code PUCCRT) Wheat plants (variety Yuma) were grown from seed in a greenhouse in 50% mineral soil/50% soil-less Metro mix until the first leaf was fully emerged, with 7-10 seedlings per pot. These plants were inoculated with an aqueous spore suspension of Puccinia triticina either prior to or after fungicide treatments. After inoculation the plants were kept in a dark dew room at 22° C. with 100% relative humidity overnight to permit spores to germinate and infect the leaf. The plants were then transferred to a greenhouse set at 24° C. for disease to develop. Fungicide formulation, application and disease assessment followed the procedures as described in the Example A.

The mark [3] stands for this setting: 24 h, 1 Day Protectant, read-out: Disease Control SEPTTR 1DP.
[4] abbreviates: 24 h, 1 Day Protectant, read-out: Disease Control PUCCRT 1DP.
Where [5] appears, read: 72 h, 3 Day Curative, read-out: Disease Control SEPTTR 3DC.
Setting [6] is: 72 h, 3 Day Curative, read-out: Disease Control PUCCRT 3DC.

Read-outs that look alike come from different tables or passages of the source.

With `COc1ccnc(C(=O)N[C@H]2COC[C@H](Oc3cc(C)cc(C)c3)[C@@H](Oc3cc(C)cc(C)c3)[C@H](C)OC2=O)c1O` [Compound 198], the pest or weed control at 100 ppm in test [1] (setting [3]) lay in the range of 80 to 100%; in test [2] (setting [4]), 0 to 80%.
With `COc1ccc(O[C@H]2[C@H](C)OC(=O)[C@@H](NC(=O)c3nccc(OC)c3O)COC[C@@H]2OC(=O)C(C)C)cc1` [Compound 199], the values for the pest or weed control at 100 ppm in test [1] (setting [3]) and in test [2] (setting [4]) were 0 to 80% and 80 to 100%, respectively.
`COc1ccc(O[C@H]2[C@H](C)OC(=O)[C@@H](NC(=O)c3nccc(OC)c3O)COC[C@@H]2Oc2ccc(OC)cc2)cc1` [Compound 201]: the pest or weed control at 100 ppm was 80 to 100% in test [1] (setting [3]), 0 to 80% in test [1] (setting [5]) and 80 to 100% in test [2] (setting [4]).
`CCCO[C@H]1COC[C@H](NC(=O)c2nccc(OC)c2O)C(=O)O[C@@H](C)[C@@H]1Oc1ccccc1` [Compound 202]: the pest or weed control at 100 ppm in test [1] (setting [3]), in test [1] (setting [5]), in test [2] (setting [4]) and in test [2] (setting [6]) was 80 to 100% in each case.
Take `CCCO[C@H]1[C@H](C)OC(=O)[C@@H](NC(=O)c2nccc(OC)c2O)COC[C@@H]1Oc1ccccc1` [Compound 203]: the pest or weed control at 100 ppm in test [1] (setting [3]), in test [1] (setting [5]), in test [2] (setting [4]) and in test [2] (setting [6]) was 80 to 100% each time.
With `COc1ccnc(C(=O)N[C@H]2COC[C@H](OC3CCCC3)[C@@H](Oc3ccccc3)[C@H](C)OC2=O)c1O` [Compound 204], the pest or weed control at 100 ppm in test [1] (setting [3]), in test [1] (setting [5]), in test [2] (setting [4]) and in test [2] (setting [6]) was 80 to 100% throughout.
Consider `COc1ccnc(C(=O)N[C@H]2COC[C@H](Oc3ccccc3)[C@@H](OC3CCCC3)[C@H](C)OC2=O)c1O` [Compound 205], for which the pest or weed control at 100 ppm in test [1] (setting [3]), in test [1] (setting [5]), in test [2] (setting [4]) and in test [2] (setting [6]) was 80 to 100% in each case.
For the compound `COc1ccnc(C(=O)N[C@H]2COC[C@H](Oc3ccc(C)cc3)[C@@H](Oc3ccc(C)cc3)[C@H](C)OC2=O)c1O` [Compound 206], the pest or weed control at 100 ppm in test [1] (setting [3]), in test [1] (setting [5]), in test [2] (setting [4]) and in test [2] (setting [6]) was 80 to 100% throughout.
`COc1ccnc(C(=O)N[C@H]2COC[C@H](Oc3ccc(F)cc3)[C@@H](OCC(C)C)[C@H](C)OC2=O)c1O` [Compound 207]: the pest or weed control at 100 ppm in test [1] (setting [3]), in test [1] (setting [5]), in test [2] (setting [4]) and in test [2] (setting [6]) was 80 to 100% in each case.
In the case of `COc1ccnc(C(=O)N[C@H]2COC[C@H](Oc3ccc(F)cc3)[C@@H](Oc3ccc(F)cc3)[C@H](C)OC2=O)c1O` [Compound 208], the pest or weed control at 100 ppm in test [1] (setting [3]) was 80 to 100%; in test [1] (setting [5]), 0 to 80%; in test [2] (setting [4]), 80 to 100%.
Take `COc1ccnc(C(=O)N[C@H]2COC[C@H](Oc3ccccc3)[C@@H](O)[C@H](C)OC2=O)c1O` [Compound 211]: the pest or weed control at 100 ppm in test [1] (setting [5]) and in test [2] (setting [4]) was 0 to 80% throughout.
For `COc1ccnc(C(=O)N[C@H]2COC[C@H](Oc3ccccc3)[C@@H](OCC=C3CCCCC3)[C@H](C)OC2=O)c1O` [Compound 212], the pest or weed control at 100 ppm lay within 80 to 100% in test [1] (setting [3]), 0 to 80% in test [1] (setting [5]), 80 to 100% in test [2] (setting [4]) and 0 to 80% in test [2] (setting [6]).
As for `CCOCC(=O)OCOc1c(OC)ccnc1C(=O)N[C@H]1COC[C@H](Oc2ccc(OC)cc2)[C@@H](Oc2ccc(OC)cc2)[C@H](C)OC1=O` [Compound 219], the pest or weed control at 100 ppm in test [1] (setting [3]) was in the range of 80 to 100%; in test [1] (setting [5]) it was 0 to 80%; in test [2] (setting [4]), 80 to 100%; in test [2] (setting [6]), 80 to 100%.

(Values after patent US9144239B2, “Macrocyclic picolinamides as fungicides” (DOW AGROSCIENCES LLC, priority 2012, dated 2015).)
